The results in this text go back to ChEMBL document CHEMBL4038347, “Converting Teixobactin into a Cationic Antimicrobial Peptide (AMP)” (2017).

In brackets after ≈: the same amount, converted by molar mass. Activity calls are given as the source filed them. The calls are words filed in the database; no cut-off is given here. Where a SMILES comes first, the peptide text is derived from it. Bridges are numbered along the chain shown (N, C = ends). [ ]: non-standard residue; d: D form. d(aIle) = CC[C@H](C)[C@@H](N)C(=O)O; dNMeF = CN[C@H](Cc1ccccc1)C(=O)O; Orn = NCCC[C@H](N)C(=O)O

What all share (assay type): functional
One test deals with Escherichia coli. Description: Antibacterial activity against Escherichia coli ATCC 25922 after 24 hrs by broth microdilution method. (Broth dilution looks for growth in wells or tubes with falling amounts of substance.)
The next test concerns Staphylococcus aureus. Description: Antibacterial activity against Staphylococcus aureus ATCC 29213 after 24 hrs by broth microdilution method.
The subject of a further test is Pseudomonas aeruginosa. The experiment in a line: Antibacterial activity against Pseudomonas aeruginosa ATCC 27853 after 24 hrs by broth microdilution method.
For a further test, the system named is Bacillus subtilis. Description: Antibacterial activity against Bacillus subtilis ATCC 6051 after 24 hrs by broth microdilution method.

In general, MIC refers to the lowest concentration that inhibits growth of the organism. With `CC[C@H](C)[C@H](NC(=O)[C@@H](Cc1ccccc1)NC)C(=O)N[C@@H](CO)C(=O)N[C@H](CCCCN)C(=O)N[C@@H](C(=O)N[C@H](C(=O)N[C@@H](CCCCN)C(=O)N[C@H]1C(=O)N[C@@H](CCCCN)C(=O)N[C@@H](CCCCN)C(=O)N[C@@H]([C@@H](C)CC)C(=O)O[C@H]1C)[C@@H](C)CC)[C@@H](C)CC` (H-[dNMeF]IS[dK][d(aIle)]IK[dT]KKI; ester 8-C), the MIC in the test on Escherichia coli (ATCC 25922, 24 h) was 32 µg/mL (≈ 24.3 µM); in the test on Staphylococcus aureus (ATCC 29213, 24 h), 256 µg/mL (≈ 195 µM); in the test with Pseudomonas aeruginosa (ATCC 27853, 24 h), 64 µg/mL (≈ 48.7 µM); against Bacillus subtilis (ATCC 6051, 24 h), 4 µg/mL (≈ 3.04 µM).

Turning to `CC[C@H](C)[C@H](NC(=O)[C@@H](Cc1ccccc1)NC)C(=O)N[C@@H](CO)C(=O)N[C@H](CCC(N)=O)C(=O)N[C@@H](C(=O)N[C@H](C(=O)N[C@@H](CO)C(=O)N[C@H]1C(=O)N[C@@H](C)C(=O)N[C@@H](CCN=C(N(C)C)N(C)C)C(=O)N[C@@H]([C@@H](C)CC)C(=O)O[C@H]1C)[C@@H](C)CC)[C@@H](C)CC`, the MIC result with Escherichia coli and in the test with Pseudomonas aeruginosa was “inactive” each time. For the same compound, the MIC against Staphylococcus aureus (ATCC 29213, 24 h) worked out at 64 µg/mL (≈ 49.7 µM); against Bacillus subtilis (ATCC 6051, 24 h), 4 µg/mL (≈ 3.11 µM).

With `CC[C@H](C)[C@H](NC(=O)[C@@H](CCCCN)NC)C(=O)N[C@@H](CO)C(=O)N[C@H](CCC(N)=O)C(=O)N[C@@H](C(=O)N[C@H](C(=O)N[C@@H](CO)C(=O)N[C@H]1C(=O)N[C@@H](C)C(=O)N[C@@H](CCCNC(=N)N)C(=O)N[C@@H]([C@@H](C)CC)C(=O)O[C@H]1C)[C@@H](C)CC)[C@@H](C)CC`, the MIC entry in the test on Escherichia coli, in the test on Staphylococcus aureus, in the test with Pseudomonas aeruginosa and in the test with Bacillus subtilis was “inactive” in each case.

Turning to `CC[C@H](C)[C@H](NC(=O)[C@@H](Cc1ccccc1)NC)C(=O)N[C@@H](CO)C(=O)N[C@H](CCC(N)=O)C(=O)N[C@@H](C(=O)N[C@H](C(=O)N[C@@H](CN)C(=O)N[C@H]1C(=O)N[C@@H](CN)C(=O)N[C@@H](CCCCN)C(=O)N[C@@H]([C@@H](C)CC)C(=O)O[C@H]1C)[C@@H](C)CC)[C@@H](C)CC`, the MIC against Escherichia coli (ATCC 25922, 24 h) is 128 µg/mL (≈ 104 µM); in the test with Staphylococcus aureus (ATCC 29213, 24 h), 32 µg/mL (≈ 26 µM); against Pseudomonas aeruginosa (ATCC 27853, 24 h), 128 µg/mL (≈ 104 µM); against Bacillus subtilis (ATCC 6051, 24 h) it was 8 µg/mL (≈ 6.5 µM).

In the case of `CC[C@H](C)[C@H](NC(=O)[C@@H](Cc1ccccc1)NC)C(=O)N[C@@H](CO)C(=O)N[C@H](CCCCN)C(=O)N[C@@H](C(=O)N[C@H](C(=O)N[C@@H](CCCCN)C(=O)N[C@H]1C(=O)N[C@@H](C)C(=O)N[C@@H](CCCN)C(=O)N[C@@H]([C@@H](C)CC)C(=O)O[C@H]1C)[C@@H](C)CC)[C@@H](C)CC`, the MIC in the test with Escherichia coli (ATCC 25922, 24 h) is 128 µg/mL (≈ 103 µM); in the test on Pseudomonas aeruginosa (ATCC 27853, 24 h), 128 µg/mL (≈ 103 µM); with Bacillus subtilis (ATCC 6051, 24 h), 16 µg/mL (≈ 12.9 µM). For the same compound, the MIC result in the test on Staphylococcus aureus was “inactive”.

As to `CC[C@H](C)[C@H](NC(=O)[C@@H](Cc1ccccc1)NC)C(=O)N[C@@H](CCCCN)C(=O)N[C@H](CCCCN)C(=O)N[C@@H](C(=O)N[C@H](C(=O)N[C@@H](CCCCN)C(=O)N[C@H]1C(=O)N[C@@H](C)C(=O)N[C@@H](CCCN)C(=O)N[C@@H]([C@@H](C)CC)C(=O)O[C@H]1C)[C@@H](C)CC)[C@@H](C)CC` (H-[dNMeF]IK[dK][d(aIle)]IK[dT]A[Orn]I; ester 8-C), the MIC with Escherichia coli (ATCC 25922, 24 h) came out at 32 µg/mL (≈ 24.9 µM); against Staphylococcus aureus (ATCC 29213, 24 h), 256 µg/mL (≈ 199 µM); in the test with Pseudomonas aeruginosa (ATCC 27853, 24 h) it was 64 µg/mL (≈ 49.8 µM); against Bacillus subtilis (ATCC 6051, 24 h) it was 16 µg/mL (≈ 12.5 µM).

As for `CC[C@H](C)[C@H](NC(=O)[C@@H](Cc1ccccc1)NC)C(=O)N[C@@H](CN)C(=O)N[C@H](CN)C(=O)N[C@@H](C(=O)N[C@H](C(=O)N[C@@H](CO)C(=O)N[C@H]1C(=O)N[C@@H](CN)C(=O)N[C@@H](CCCCN)C(=O)N[C@@H]([C@@H](C)CC)C(=O)O[C@H]1C)[C@@H](C)CC)[C@@H](C)CC`, the MIC is 64 µg/mL (≈ 53.9 µM) with Escherichia coli (ATCC 25922, 24 h); 16 µg/mL (≈ 13.5 µM) with Staphylococcus aureus (ATCC 29213, 24 h); 32 µg/mL (≈ 26.9 µM) in the test on Pseudomonas aeruginosa (ATCC 27853, 24 h); 4 µg/mL (≈ 3.37 µM) with Bacillus subtilis (ATCC 6051, 24 h).
